# Read-outs that look alike come from different tables or passages of the source.
# Tests used:
# [1] = test system: human primary tumor cells; experiment: Inhibition of primary tumor cell cultures vs absence or presence of ERK  protein (Example 3; tumor type per table line); type: cell-based; conditions: for Percentage of inhibition of cell cultures: 100 micromolar
# Description: Cell cultures. […] Briefly, small pieces of the tumors were digested into a hyaluronidase solution (Sigma-Aldrich, USA) at a concentration of 1 mg/ml during 15 minutes at 37°C, and then they were treated with 6 mg/ml of collagenase type IV (Invitrogen) during 2 hours at 37°C. Consecutively, cells were washed, and resuspended in the DMEM culture medium with high concentration of glucose (Dulbecco's Modified Eagle's Medium, Invitrogen) supplemented with 1% of antibiotics-antimycotics (Invitrogen) and with 1% of sodium pyruvate (Invitrogen), and the cells were seeded in culture slides at a concentration of 10.000 cells per square centimeter. When cells reached confluence, the adherent cells were separated using sterile trypsin at 0,5% (Invitrogen) and they were used among passages 3 and 9. For the assays shown next, tumor cells were seeded on slides at a concentration of 25.000 cells per well. A total of 6 wells containing the tumor cells were used as survival control. […] All the cultures were kept during 48 hours and later on recollected for their analysis.
# Consecutively, the cells were placed in cultures in the presence of several antagonists of the NK1 receptor.
# In each case it was determined the presence or absence of the downstream effector in the MAP Kinases ERK pathway.
# To determine the presence of the ERK protein, it was performed a Western Blot technique, using as primary antibody: Phospho-p44/42 MAPK (Erk1/2) (Thr202/Tyr204) (D13.14.4E) XP® Rabbit mAb (4370, Cell Signalling). To determine the presence of the MEK protein, it was performed the Western Blot technique, using as primary antibody Phospho-MEK1/2 (Ser217/221) (9121, Cell Signalling).
# The antibody against NK1 receptor (Table 21) was used at 1/50 concentration. The percentages of inhibition are expressed in percentages of variation in relation to control ± standard deviation.
# [2] = test system: Burkitt Lymphoma; experiment: Inhibition of primary tumor cell cultures (48 hours) vs NK1 receptor immunostaining (Example 1); type: cell-based; conditions: Homo sapiens, 1 micromolar, read-out: Percentage of inhibition of cell cultures
# Description: (§1) Cell cultures. To obtain tumor cells from human primary tumors we used the method described in De Bari et al. (De Bari et al. 2001). Briefly, small pieces of the tumors were digested into a hyaluronidase solution (Sigma-Aldrich, USA) at a concentration of 1 mg/ml during 15 minutes at 37°C, and then they were treated with 6 mg/ml of collagenase type IV (Invitrogen) during 2 hours at 37°C. Consecutively, cells were washed, and resuspended in the DMEM culture medium with high concentration of glucose (Dulbecco's Modified Eagle's Medium, Invitrogen) supplemented with 1% of antibiotics-antimycotics (Invitrogen) and with 1% of sodium pyruvate (Invitrogen), and the cells were seeded in culture slides at a concentration of 10.000 cells per square centimeter. When cells reached confluence, the adherent cells were separated using sterile trypsin at 0,5% (Invitrogen) and they were used among passages 3 and 9. For the assays shown next, tumor cells were seeded on slides at a concentration of 25.000 cells per well. A total of 6 wells containing the tumor cells were used as survival control. […] All the cultures were kept during 48 hours and later on recollected for their analysis.
# (§2) Immunohistochemistry techniques. The presence of NK1 receptors was also analyzed using immunohistochemistry techniques. Briefly, a sample of each of the cultures of the cell lines used in the present invention, was centrifuged (5 minutes at 1.500 rpm) and the pellet obtained was dehydrated using increasing concentrations of ethanol and, finally, xylol. Then, said dehydrated samples were embedded in paraffin, creating a block of cells. Such paraffin blocks were cut with a microtome at 5 microns thickness, and were placed on microscope slides adequate to perform immunohistochemistry techniques. Consecutively, they were de-paraffinized by immersing them in xylol, to be finally hydrated using a solution containing decreasing concentrations of ethanol, and finally submerged them into water. […] After this, the samples were left to cool down at room temperature for 10 minutes. The endogenous peroxidase activity was blocked with 3% peroxide of hydrogen for 30 minutes at room temperature. After washing the samples with 0.05 M of Tris buffer, they were incubated with 10% non-immune pork serum at for 30 minutes at room temperature. To analyze the expression of NK1 receptors, the cellular samples were incubated in the presence of anti-NK1 antibodies (S8305, Sigma-Aldrich) diluted 1:1000, overnight at 4°C. Afterwards, the samples were washed in Tris buffer 0.05 M at room temperature. The next step was the addition of Envision System-HRP (Dako) reagents for 30 minutes at room temperature. Then, the samples were washed again in Tris buffer 0.05 M and the immunoreactivity was visualized through light microscopy with a chromogenic solution containing 3,3'-Diaminobenzidine (DAB+; Dako, USA). To differentiate the cell nuclei, they were slightly stained with hematoxylin. As negative control, it was used samples not incubated with the primary antibody anti-NK1, which was replaced by non-immune serum. All the samples were evaluated.
# (§3) To value the immunostaining in each of the cases six cuts were performed to be analyzed by the immunohistochemistry technique. In each of the six cuts, it was counted cells in 20 fields (magnification 400x) using an Olympus microscope (model CX31). In each field it was counted the total number of cells and the number of cells presenting immunostaining, calculating afterwards the percentage of cells which presented immunostaining.
# [3] = test system: Thyroid carcinoma (follicular carcinoma); experiment: Inhibition of primary tumor cell cultures vs Kras mutation (Example 2); type: cell-based, human; conditions: Thyroid carcinoma (follicular carcinoma), 100 micromolar
# Description: To obtain tumor cells from human primary tumors we used the method described in De Bari et al. (De Bari et al. 2001). Briefly, small pieces of the tumors were digested into a hyaluronidase solution (Sigma-Aldrich, USA) at a concentration of 1 mg/ml during 15 minutes at 37°C, and then they were treated with 6 mg/ml of collagenase type IV (Invitrogen) during 2 hours at 37°C. Consecutively, cells were washed, and resuspended in the DMEM culture medium with high concentration of glucose (Dulbecco's Modified Eagle's Medium, Invitrogen) supplemented with 1% of antibiotics-antimycotics (Invitrogen) and with 1% of sodium pyruvate (Invitrogen), and the cells were seeded in culture slides at a concentration of 10.000 cells per square centimeter. When cells reached confluence, the adherent cells were separated using sterile trypsin at 0,5% (Invitrogen) and they were used among passages 3 and 9. For the assays shown next, tumor cells were seeded on slides at a concentration of 25.000 cells per well. A total of 6 wells containing the tumor cells were used as survival control. […] All the cultures were kept during 48 hours and later on recollected for their analysis.
# (§4) In each case the presence or not of mutations in K-ras gene was determined.
# (§5) To determine the existence of mutations in the K-ras gene DNA from cancer tumor cells was extracted from samples obtained from the different cancer tumor cells, using DNA extraction kits from Takara (Madison, WI, US) or Ambion (Huntingdon, Cambridgeshire, United Kingdom), following the manufacturer's instructions, and as it has been previously published (Di Fiore F, et al. 2007). Consecutively it was analyzed by sequencing the exon 2 of the KRAS gene, , by means of PCR amplification from previously extracted cancer tumor DNA, using the following sense primer (SEQ ID NO. 15): 5'-[sequence]-3' and anti-sense primer (SEQ ID NO. 16): 5'-[sequence]-3'. After the purification using the Qiagen extraction kit, the PCR products were sequenced using the Big Dye Terminator Kit V3.1 (Applied Biosystems, Foster City, CA, U.S.) and an ABI Prism 377 or 3100 DNA sequencer (Applied Biosystems). The presence of a heterozygous mutation in the KRAS gene in cancer tumor cells of the cultures was defined as the appearance of a mutant peak of a height of at least a third of the wild type. All the sequence analysis were executed at least twice in two independent PCR.
# The antibody against NK1 receptor (Table 16) was used at 1/50 concentration. The percentages of inhibition are expressed in percentage of variation in relation to control ± standard deviation.
# [4] = test system: Prostate carcinoma; experiment: cells; conditions: Homo sapiens, 1 micromolar
# Description: as §1, §2, §3
# [5] = test system: human primary tumor cells; experiment: Inhibition of primary tumor cell cultures vs low or high expression of the truncated form of NK1 receptor (Example 5; tumor type per table line); type: cell-based; conditions: for Percentage of inhibition of cell cultures: 100 micromolar
# Description: as §1
# The presence of the truncated form of NK1 receptor was determined and then cells were cultured in presence of several antagonists of the NK1 receptor.
# In each case the presence of the truncated form of the NK1 receptor was determined.
# To determine the presence of the truncated form of the gene of NK1 receptor PCR technique was performed (Polymerase Chain Reaction). The extraction of RNA, amplifications of PCR, cycle conditions and quantitative analysis were executed as it has been previously described. The specific primers were the following: For the full-length NK1R receptor (NM_001058.3; forward (SEQ ID NO: 17)-: 5'-[sequence]-3 ' and reverse- (SEQ ID NO:18): 5'-[sequence]-3') and for the truncated NK1receptor (NM_015727.2; forward (SEQ ID NO: 19): 5'-[sequence]-3 and reverse (SEQ ID NO;20): 5'-[sequence]-3').
# Cases were distributed in two groups: • Group A -low expression of the truncated form of NK1 receptor- for those cases wherein the expression of the truncated form of NK1 receptor was less than double the expression of the full length form of such receptor. • Group B -high expression of the truncated form of NK1 receptor- for those cases wherein the expression of the truncated form of the NK1 receptor was higher than double the expression of the full length form of such receptor.
# The percentages of inhibition are expressed in percentage of variation in relation to the control ± standard deviation.
# [6] = test system: Prostate carcinoma; experiment: Inhibition of primary tumor cell cultures vs Kras mutation (Example 2); type: cell-based, human; conditions: Prostate carcinoma, 100 micromolar
# Description: as §1, §4, §5
# The percentages of inhibition are expressed in percentage of variation in relation to control ± standard deviation.
# [7] = test system: Hodgkin lymphoma; experiment: Inhibition of primary tumor cell cultures (48 hours) vs NK1 receptor immunostaining (Example 1); type: cell-based; conditions: Homo sapiens, 1 micromolar, read-out: Percentage of inhibition of cell cultures
# Description: as §1, §2, §3
# [8] = test system: Colon carcinoma; experiment: as above; type: cell-based; conditions: Homo sapiens, 1 micromolar, read-out: Percentage of inhibition of cell cultures
# Description: as §1, §2, §3
# [9] = NK1 receptor immunostaining Group 1 (less than 20% of the cells)
# [10] = NK1 receptor immunostaining Group 2 (20-80% of the cells)
# [11] = NK1 receptor immunostaining Group 3 (more than 80% of the cells)
# [12] = NK1 receptor immunostaining Intensity grade 1
# [13] = NK1 receptor immunostaining Intensity grade 2
# [14] = NK1 receptor immunostaining Intensity grade 3
# [15] = Cases with Kras non-mutated (wild type)
smiles,measurement,setting,value
Cc1cc(F)ccc1[C@H]1CNCCN1C(=O)N(C)[C@H](C)c1cc(C(F)(F)F)cc(C(F)(F)F)c1 [Vestipitant],Percentage of inhibition of cell cultures,"[1]; Gastric carcinoma (Adenocarcinoma), cases without presence of ERK",24±4 percentage
same,Percentage of inhibition of cell cultures,"[1]; Glioma (astrocytoma), cases with presence of ERK",95±3 percentage
same,Percentage of inhibition of cell cultures,"[1]; Glioma (astrocytoma), cases without presence of ERK",27±4 percentage
same,Percentage of inhibition of cell cultures,"[1]; Lung carcinoma (non small cell lung carcinoma), cases with presence of ERK",95±5 percentage
same,Percentage of inhibition of cell cultures,"[1]; Lung carcinoma (non small cell lung carcinoma), cases without presence of ERK",26±2 percentage
same,Percentage of inhibition of cell cultures,"[1]; Lung carcinoma (small cell lung carcinoma), cases with presence of ERK",96±6 percentage
same,Percentage of inhibition of cell cultures,"[1]; Lung carcinoma (small cell lung carcinoma), cases without presence of ERK",27±4 percentage
same,Percentage of inhibition of cell cultures,"[1]; Melanoma (Nodular Melanoma), cases with presence of ERK",94±5 percentage
same,Percentage of inhibition of cell cultures,"[1]; Melanoma (Nodular Melanoma), cases without presence of ERK",25±3 percentage
same,Percentage of inhibition of cell cultures,"[1]; Non Hodgkin Lymphoma B (diffuse B cell lymphoma), cases with presence of ERK",96±3 percentage
same,Percentage of inhibition of cell cultures,"[1]; Non Hodgkin Lymphoma B (diffuse B cell lymphoma), cases without presence of ERK",24±4 percentage
same,Percentage of inhibition of cell cultures,"[1]; Non Hodgkin Lymphoma T (diffuse T cell lymphoma), cases with presence of ERK",92±4 percentage
same,Percentage of inhibition of cell cultures,"[1]; Non Hodgkin Lymphoma T (diffuse T cell lymphoma), cases without presence of ERK",25±2 percentage
same,Percentage of inhibition of cell cultures,"[1]; Ovarian carcinoma (Adenocarcinoma), cases with presence of ERK",95±5 percentage
same,Percentage of inhibition of cell cultures,"[1]; Ovarian carcinoma (Adenocarcinoma), cases without presence of ERK",24±2 percentage
same,Percentage of inhibition of cell cultures,"[1]; Pancreatic carcinoma (Adenocarcinoma), cases with presence of ERK",93±4 percentage
same,Percentage of inhibition of cell cultures,"[1]; Pancreatic carcinoma (Adenocarcinoma), cases without presence of ERK",24±34 percentage
same,Percentage of inhibition of cell cultures,"[1]; Prostate carcinoma, cases with presence of ERK",94±4 percentage
same,Percentage of inhibition of cell cultures,"[1]; Prostate carcinoma, cases without presence of ERK",22±3 percentage
same,Percentage of inhibition of cell cultures,"[1]; Renal cell carcinoma (clear cell renal cell carcinoma), cases with presence of ERK",92±2 percentage
same,Percentage of inhibition of cell cultures,"[1]; Renal cell carcinoma (clear cell renal cell carcinoma), cases without presence of ERK",25±2 percentage
same,Percentage of inhibition of cell cultures,"[1]; Thyroid carcinoma (follicular carcinoma), cases with presence of ERK",94±4 percentage
same,Percentage of inhibition of cell cultures,"[1]; Thyroid carcinoma (follicular carcinoma), cases without presence of ERK",25±3 percentage
same,Percentage of inhibition of cell cultures,"[1]; Thyroid carcinoma (papillary carcinoma), cases with presence of ERK",96±3 percentage
same,Percentage of inhibition of cell cultures,"[1]; Thyroid carcinoma (papillary carcinoma), cases without presence of ERK",26±4 percentage
same,Percentage of inhibition of cell cultures,"[1]; Undifferentiated Pleomorphic Sarcoma (malignant fibrous histiocytoma grade 3), cases with presence of ERK",93±4 percentage
same,Percentage of inhibition of cell cultures,"[1]; Undifferentiated Pleomorphic Sarcoma (malignant fibrous histiocytoma grade 3), cases without presence of ERK",26±2 percentage
same,Percentage of inhibition of cell cultures,"[1]; Urinary bladder carcinoma (transitional cell carcinoma), cases with presence of ERK",97±5 percentage
same,Percentage of inhibition of cell cultures,"[1]; Urinary bladder carcinoma (transitional cell carcinoma), cases without presence of ERK",24±5 percentage
same,inhibition of cell proliferation,"[1]; cancer cell cultures that show more presence of ERK, compared, non-peptidic antagonists 100 micromolar, antibody 1/50",higher inhibition
same,inhibition at 1 µM,[2]; [9],12 ± 3%
same,inhibition at 1 µM,[2]; [10],45 ± 3%
same,inhibition at 1 µM,[2]; [11],92 ± 4%
same,inhibition at 1 µM,[2]; [12],15 ± 3%
same,inhibition at 1 µM,[2]; [13],47 ± 5%
same,inhibition at 1 µM,[2]; [14],92 ± 6%
same,Percentage of inhibition of cell cultures,[3]; Cases with Kras mutated,25±3 percentage
same,Percentage of inhibition of cell cultures,[3]; [15],97±4 percentage
same,inhibition at 1 µM,"[4]; read-out: Percentage of inhibition of cell cultures, NK1 receptor immunostaining Group 1 (less than 20% of the cells)",17 ± 4%
same,inhibition at 1 µM,"[4]; read-out: Percentage of inhibition of cell cultures, NK1 receptor immunostaining Group 2 (20-80% of the cells)",46 ± 3%
same,inhibition at 1 µM,"[4]; read-out: Percentage of inhibition of cell cultures, NK1 receptor immunostaining Group 3 (more than 80% of the cells)",92 ± 5%
same,inhibition at 1 µM,"[4]; read-out: Percentage of inhibition of cell cultures, NK1 receptor immunostaining Intensity grade 1",18 ± 4%
same,inhibition at 1 µM,"[4]; read-out: Percentage of inhibition of cell cultures, NK1 receptor immunostaining Intensity grade 2",47 ± 4%
same,inhibition at 1 µM,"[4]; read-out: Percentage of inhibition of cell cultures, NK1 receptor immunostaining Intensity grade 3",92 ± 4%
same,Percentage of inhibition of cell cultures,"[5]; Glioma (astrocytoma), Cases with high expression of the truncated form of NK1 receptor (Group B)",94±5 percentage
same,Percentage of inhibition of cell cultures,"[5]; Glioma (astrocytoma), Cases with low expression of the truncated form of NK1 receptor (Group A)",25±5 percentage
same,Percentage of inhibition of cell cultures,"[5]; Lung carcinoma (non small cell lung carcinoma), Cases with high expression of the truncated form of NK1 receptor (Group B)",94±4 percentage
same,Percentage of inhibition of cell cultures,"[5]; Lung carcinoma (non small cell lung carcinoma), Cases with low expression of the truncated form of NK1 receptor (Group A)",26±4 percentage
same,Percentage of inhibition of cell cultures,"[5]; Melanoma (Nodular Melanoma), Cases with high expression of the truncated form of NK1 receptor (Group B)",96±4 percentage
same,Percentage of inhibition of cell cultures,"[5]; Melanoma (Nodular Melanoma), Cases with low expression of the truncated form of NK1 receptor (Group A)",24±5 percentage
same,Percentage of inhibition of cell cultures,"[5]; Non Hodgkin Lymphoma B (diffuse B cell lymphoma), Cases with high expression of the truncated form of NK1 receptor (Group B)",98±5 percentage
same,Percentage of inhibition of cell cultures,"[5]; Non Hodgkin Lymphoma B (diffuse B cell lymphoma), Cases with low expression of the truncated form of NK1 receptor (Group A)",23±5 percentage
same,Percentage of inhibition of cell cultures,"[5]; Non Hodgkin Lymphoma T (diffuse T cell lymphoma), Cases with high expression of the truncated form of NK1 receptor (Group B)",98±4 percentage
same,Percentage of inhibition of cell cultures,"[5]; Non Hodgkin Lymphoma T (diffuse T cell lymphoma), Cases with low expression of the truncated form of NK1 receptor (Group A)",23±4 percentage
same,Percentage of inhibition of cell cultures,"[5]; Prostate carcinoma, Cases with high expression of the truncated form of NK1 receptor (Group B)",95±6 percentage
same,Percentage of inhibition of cell cultures,"[5]; Prostate carcinoma, Cases with low expression of the truncated form of NK1 receptor (Group A)",24±6 percentage
same,Percentage of inhibition of cell cultures,"[5]; Thyroid carcinoma (follicular carcinoma), Cases with high expression of the truncated form of NK1 receptor (Group B)",95±5 percentage
same,Percentage of inhibition of cell cultures,"[5]; Thyroid carcinoma (follicular carcinoma), Cases with low expression of the truncated form of NK1 receptor (Group A)",27±3 percentage
same,Percentage of inhibition of cell cultures,"[5]; Thyroid carcinoma (papillary carcinoma), Cases with high expression of the truncated form of NK1 receptor (Group B)",96±6 percentage
same,Percentage of inhibition of cell cultures,"[5]; Thyroid carcinoma (papillary carcinoma), Cases with low expression of the truncated form of NK1 receptor (Group A)",26±5 percentage
same,Percentage of inhibition of cell cultures,"[5]; Undifferentiated Pleomorphic Sarcoma (malignant fibrous histiocytoma grade 3), Cases with high expression of the truncated form of NK1 receptor (Group B)",95±3 percentage
same,Percentage of inhibition of cell cultures,"[5]; Undifferentiated Pleomorphic Sarcoma (malignant fibrous histiocytoma grade 3), Cases with low expression of the truncated form of NK1 receptor (Group A)",26±4 percentage
same,Percentage of inhibition of cell cultures,"[5]; Urinary bladder carcinoma (transitional cell carcinoma), Cases with high expression of the truncated form of NK1 receptor (Group B)",94±5 percentage
same,Percentage of inhibition of cell cultures,"[5]; Urinary bladder carcinoma (transitional cell carcinoma), Cases with low expression of the truncated form of NK1 receptor (Group A)",25±4 percentage
same,inhibition of cell proliferation,"[5]; cancer cell cultures that show more expression of the truncated form of NK1 receptor, compared, non-peptidic antagonists 100 micromolar, antibody 1/50",higher inhibition
same,Percentage of inhibition of cell cultures,[6]; Cases with Kras mutated,24±4 percentage
same,Percentage of inhibition of cell cultures,[6]; [15],96±4 percentage
same,inhibition at 1 µM,[7]; [9],14 ± 3%
same,inhibition at 1 µM,[7]; [10],46 ± 3%
same,inhibition at 1 µM,[7]; [11],92 ± 5%
same,inhibition at 1 µM,[7]; [12],16 ± 4%
same,inhibition at 1 µM,[7]; [13],48 ± 3%
same,inhibition at 1 µM,[7]; [14],92 ± 4%
same,inhibition at 1 µM,[8]; [9],12 ± 4%
same,inhibition at 1 µM,[8]; [10],45 ± 3%
same,inhibition at 1 µM,[8]; [11],91 ± 2%
same,inhibition at 1 µM,[8]; [12],18 ± 5%
same,inhibition at 1 µM,[8]; [13],46 ± 4%
same,inhibition at 1 µM,[8]; [14],91 ± 5%
